# Results reported in patent publication US6642392B1 (priority 1997, dated 2003).
# Like-named read-outs stand apart in the source and are kept apart here.
# Columns and labels:
# Format in all cases: in vivo
# [1] = test system: Eiysiphe graminis f. sp. tritici; test: Test A: wheat powdery mildew, preventive spray on wheat seedlings; settings: for Test A disease control rating: wheat powdery mildew; for Test A disease control rating (100 = 100% disease control, 0 = no disease control): rating relative to controls
# Procedure: (§1) The resulting test suspensions were then used in the following tests. […]
# The test suspension was sprayed to the point of run-off on wheat seedlings. The following day the seedlings were inoculated with a spore dust of Eiysiphe graminis f. sp. tritici, (the causal agent of wheat powdery mildew) and incubated in a growth chamber at 20° C. for 7 days, after which disease ratings were made.
# (§2) Results for Tests A-E are given in Table A. In the table, a rating of 100 indicates 100% disease control and a rating of 0 indicates no disease control (relative to the controls). A dash (-) indicates no test results. ND indicates disease control not determined due to phytotoxicity.
# [2] = test system: Botrytis cinerea; test: Test E: gray mold, preventive spray on cucumber seedlings; settings: for Test E disease control rating: gray mold on cucumber; for Test E disease control rating (100 = 100% disease control, 0 = no disease control): rating relative to controls
# Procedure: The resulting test suspensions were then used in the following tests. Spraying these 200 ppm test suspensions to the point of run-off on the test plants is the equivalent of a rate of 500 g/ha.
# The test suspension was sprayed to the point of run-off on cucumber seedlings. The following day the seedlings were inoculated with a spore suspension of Botrytis cinerea (the causal agent of gray mold on many crops) and incubated in a saturated atmosphere at 20° C. for 48 h, and moved to a growth chamber at 20° C. for 5 days, after which disease ratings were made.
# as §2
# [3] = test system: Phytophthora infestans; settings: for Test D disease control rating: tomato late blight; for Test D disease control rating (100 = 100% disease control, 0 = no disease control): rating relative to controls
# [4] = test system: Pyricularia oryzae; settings: for Test C disease control rating: rice blast; for Test C disease control rating (100 = 100% disease control, 0 = no disease control): rating relative to controls
# [5] = test system: Puccinia recondita; test: Test B: wheat leaf rust, preventive spray on wheat seedlings; settings: for Test B disease control rating: wheat leaf rust; for Test B disease control rating (100 = 100% disease control, 0 = no disease control): rating relative to controls
# Procedure: as §1
# The test suspension was sprayed to the point of run-off on wheat seedlings. The following day the seedlings were inoculated with a spore suspension of Puccinia recondita (the causal agent of wheat leaf rust) and incubated in a saturated atmosphere at 20° C. for 24 h, and then moved to a growth chamber at 20° C. for 6 days, after which disease ratings were made.
# as §2
# [6] = 100 = 100% disease control, 0 = no control relative to controls, unmarked entries (standard test concentration)
# [7] = 100 = 100% disease control, 0 = no control, unmarked entries (standard test concentration)
# [8] = wheat seedlings sprayed to run-off, inoculated the following day, unmarked compounds (standard test rate)
# [9] = cucumber seedlings sprayed to run-off, inoculated the following day, unmarked compounds (standard test rate)
# [10] = tomato seedlings sprayed to run-off, inoculated the following day, unmarked compounds (standard test rate)
# [11] = rice seedlings sprayed to run-off, inoculated the following day, unmarked compounds (standard test rate)
# [12] = tested at 40 ppm, wheat seedlings
smiles,measurement,setting,value
CCC1(C(=O)NC(C)COc2ccccc2C(F)(F)F)C(C)C1(Cl)Cl (mixture of isomers) [94a],Test A disease control rating,[1]; [6],0%
same,Test E disease control rating,[2]; [7],0%
same,Test D disease control rating,[3]; [7],0%
same,Test C disease control rating,[4]; [7],0%
same,Test B disease control rating,[5]; [7],0%
CCC(C#N)C(=O)N[C@H](C)[C@H](Oc1ccccc1C#N)c1ccccc1 (some centres unmarked) [compound 304],"Test A disease control rating (100 = 100% disease control, 0 = no disease control)",[1]; [8],0%
same,"Test E disease control rating (100 = 100% disease control, 0 = no disease control)",[2]; [9],0%
same,"Test D disease control rating (100 = 100% disease control, 0 = no disease control)",[3]; [10],0%
same,"Test C disease control rating (100 = 100% disease control, 0 = no disease control)",[4]; [11],97%
same,"Test B disease control rating (100 = 100% disease control, 0 = no disease control)",[5]; [8],0%
CC(COc1ccccc1SC(F)(F)C(F)F)NC(=O)C(C#N)C(C)(C)C (mixture of isomers) [compound 202],Test A disease control rating,[1]; [6],0%
same,Test E disease control rating,[2]; [7],0%
same,Test D disease control rating,[3]; [7],0%
same,Test C disease control rating,[4]; [7],53%
same,Test B disease control rating,[5]; [7],0%
CCC1(C(=O)NCC=Cc2ccc(F)cc2F)C(C)C1(Cl)Cl (centres unmarked) [compound 162],Test A disease control rating,[1]; [6],0%
same,Test E disease control rating,[2]; [7],82%
same,Test D disease control rating,[3]; [7],95%
same,Test C disease control rating,[4]; [7],74%
same,Test B disease control rating,[5]; [7],0%
CCC1(C(=O)NC(C)COc2ccc(F)c(Cl)c2)C(C)C1(Cl)Cl (centres unmarked) [compound 232],"Test A disease control rating (100 = 100% disease control, 0 = no disease control)",[1]; [8],62%
same,"Test E disease control rating (100 = 100% disease control, 0 = no disease control)",[2]; [9],69%
same,"Test D disease control rating (100 = 100% disease control, 0 = no disease control)",[3]; [10],35%
same,"Test C disease control rating (100 = 100% disease control, 0 = no disease control)",[4]; [11],100%
same,"Test B disease control rating (100 = 100% disease control, 0 = no disease control)",[5]; [8],0%
CCC1(C(=O)NCC=Cc2cccs2)C(C)C1(Cl)Cl (centres unmarked) [compound 164],Test A disease control rating,[1]; [6],0%
same,Test E disease control rating,[2]; [7],7%
same,Test D disease control rating,[3]; [7],56%
same,Test C disease control rating,[4]; [7],72%
same,Test B disease control rating,[5]; [7],0%
CCC1(C(=O)NC(C)COc2ccc(C)cc2Cl)C(C)C1(Cl)Cl (centres unmarked) [compound 126],Test A disease control rating,[1]; tested at 40 ppm,0%
same,Test E disease control rating,[2]; tested at 40 ppm,0%
same,Test D disease control rating,[3]; tested at 40 ppm,0%
same,Test C disease control rating,[4]; tested at 40 ppm,73%
same,Test B disease control rating,[5]; tested at 40 ppm,0%
"C[C@H](COc1ccc(Cl)cc1Cl)NC(=O)C(C#N)C(C)(C)C (single isomer, unassigned) [32a]",Test A disease control rating,[1]; [6],0%
same,Test E disease control rating,[2]; [7],0%
same,Test D disease control rating,[3]; [7],0%
same,Test C disease control rating,[4]; [7],91%
same,Test B disease control rating,[5]; [7],27%
CC(COc1cccc(I)c1C#N)NC(=O)C(C#N)C(C)C(C)(C)C (mixture of isomers) [compound 65],Test A disease control rating,[1]; [6],0%
same,Test E disease control rating,[2]; [7],0%
same,Test D disease control rating,[3]; [7],2%
same,Test C disease control rating,[4]; [7],0%
same,Test B disease control rating,[5]; [7],0%
"CC(COc1cccc(F)c1)NC(=O)C(C#N)C(C)(C)C (single isomer, unassigned) [3b]",Test A disease control rating,[1]; [6],0%
same,Test E disease control rating,[2]; [7],0%
same,Test D disease control rating,[3]; [7],32%
same,Test C disease control rating,[4]; [7],86%
same,Test B disease control rating,[5]; [7],0%
CC(COc1ccccc1Br)NC(=O)C(C#N)C(C)C(C)(C)C (mixture of isomers) [compound 59],Test A disease control rating,[1]; tested at 40 ppm,0%
same,Test E disease control rating,[2]; tested at 40 ppm,0%
same,Test D disease control rating,[3]; tested at 40 ppm,0%
same,Test C disease control rating,[4]; tested at 40 ppm,52%
same,Test B disease control rating,[5]; tested at 40 ppm,0%
CCC1(C(=O)NC(C)COc2ccccc2C(C)C)C(C)C1(Cl)Cl (centres unmarked) [compound 99],Test A disease control rating,[1]; tested at 40 ppm,83%
same,Test E disease control rating,[2]; tested at 40 ppm,0%
same,Test D disease control rating,[3]; tested at 40 ppm,68%
same,Test C disease control rating,[4]; tested at 40 ppm,0%
same,Test B disease control rating,[5]; tested at 40 ppm,0%
"C[C@H](COc1ccccc1)NC(=O)C(C#N)C(C)(C)C (single isomer, unassigned) [1d]",Test A disease control rating,[1]; [6],92%
same,Test E disease control rating,[2]; [7],0%
same,Test D disease control rating,[3]; [7],0%
same,Test C disease control rating,[4]; [7],100%
same,Test B disease control rating,[5]; [7],0%
CCC1(C(=O)NC(C)COc2cc(F)ccc2Br)C(C)C1(Cl)Cl (centres unmarked) [compound 125],Test A disease control rating,[1]; tested at 40 ppm,90%
same,Test E disease control rating,[2]; tested at 40 ppm,0%
same,Test D disease control rating,[3]; tested at 40 ppm,0%
same,Test C disease control rating,[4]; tested at 40 ppm,99%
same,Test B disease control rating,[5]; tested at 40 ppm,0%
CC(NC(=O)C(C#N)C(C)(C)C)C(Oc1ccccc1C#N)c1ccccc1 (mixture of isomers) [compound 291],"Test A disease control rating (100 = 100% disease control, 0 = no disease control)",[1]; [8],0%
same,"Test E disease control rating (100 = 100% disease control, 0 = no disease control)",[2]; [9],0%
same,"Test D disease control rating (100 = 100% disease control, 0 = no disease control)",[3]; [10],0%
same,"Test C disease control rating (100 = 100% disease control, 0 = no disease control)",[4]; [11],90%
same,"Test B disease control rating (100 = 100% disease control, 0 = no disease control)",[5]; [8],0%
CCC1(C(=O)NC(C)COc2ccc(Cl)c(Cl)c2Cl)C(C)C1(Cl)Cl (centres unmarked) [compound 243],"Test A disease control rating (100 = 100% disease control, 0 = no disease control)",[1]; [8],38%
same,"Test E disease control rating (100 = 100% disease control, 0 = no disease control)",[2]; [9],0%
same,"Test D disease control rating (100 = 100% disease control, 0 = no disease control)",[3]; [10],74%
same,"Test C disease control rating (100 = 100% disease control, 0 = no disease control)",[4]; [11],74%
same,"Test B disease control rating (100 = 100% disease control, 0 = no disease control)",[5]; [8],0%
CCC1(C(=O)NC(C)COc2cc(F)cc(F)c2Cl)C(C)C1(Cl)Cl (centres unmarked) [compound 318],"Test A disease control rating (100 = 100% disease control, 0 = no disease control)",[1]; [12],90%
same,"Test E disease control rating (100 = 100% disease control, 0 = no disease control)","[2]; tested at 40 ppm, cucumber seedlings",0%
same,"Test D disease control rating (100 = 100% disease control, 0 = no disease control)","[3]; tested at 40 ppm, tomato seedlings",0%
same,"Test C disease control rating (100 = 100% disease control, 0 = no disease control)","[4]; tested at 40 ppm, rice seedlings",53%
same,"Test B disease control rating (100 = 100% disease control, 0 = no disease control)",[5]; [12],0%
CCC1(C(=O)NC(C)COc2cc(I)ccc2C#N)C(C)C1(Cl)Cl (centres unmarked) [compound 247],"Test A disease control rating (100 = 100% disease control, 0 = no disease control)",[1]; [8],53%
same,"Test E disease control rating (100 = 100% disease control, 0 = no disease control)",[2]; [9],0%
same,"Test D disease control rating (100 = 100% disease control, 0 = no disease control)",[3]; [10],0%
same,"Test C disease control rating (100 = 100% disease control, 0 = no disease control)",[4]; [11],85%
same,"Test B disease control rating (100 = 100% disease control, 0 = no disease control)",[5]; [8],0%
CCC1(C(=O)NC(C)COc2ccc(F)cc2)C(C)C1(Cl)Cl (mixture of isomers) [80a],Test A disease control rating,[1]; tested at 40 ppm,0%
same,Test E disease control rating,[2]; tested at 40 ppm,0%
same,Test D disease control rating,[3]; tested at 40 ppm,20%
same,Test C disease control rating,[4]; tested at 40 ppm,86%
same,Test B disease control rating,[5]; tested at 40 ppm,0%
